Experimental data taken from PubChem BioAssay AID328 (DTP/NCI, 2004).
Values joined by “and” are separate entries in the source; they are usually repeats but may differ in a detail not shown here. Equal values may be shown once. Inconclusive results and toxic doses are left out.

System: BDF1 mice, P388 leukemia ip, median survival T/C
Test: NCI In Vivo Anticancer Drug Screen. Data for tumor model P388 Leukemia (intraperitoneal) in B6D2F1 (BDF1) mice
Conditions: endpoint: median survival time, higher = longer survival
How it was run: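 Steps: implant the tumour, treat one group with compound and another with vehicle, record survival, then divide treated by control.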

[1] = dose: 100.0 mg/kg/injection, schedule: Q01DX009 (ip), vehicle: saline with Tween-80
[2] = dose: 100.0 mg/kg/injection, schedule: Q04DX003 (ip), vehicle: saline with Tween-80
[3] = dose: 200.0 mg/kg/injection, schedule: Q01DX009 (ip), vehicle: saline with Tween-80
[4] = dose: 200.0 mg/kg/injection, schedule: Q04DX003 (ip), vehicle: saline with Tween-80
[5] = dose: 400.0 mg/kg/injection, schedule: Q01DX009 (ip), vehicle: saline with Tween-80
[6] = dose: 50.0 mg/kg/injection, schedule: Q01DX009 (ip), vehicle: saline with Tween-80
[7] = dose: 25.0 mg/kg/injection, schedule: Q01DX009 (ip), vehicle: Klucel (hydroxypropylcellulose) (HPC)
[8] = dose: 50.0 mg/kg/injection, schedule: Q01DX009 (ip), vehicle: Klucel (hydroxypropylcellulose) (HPC)
[9] = dose: 200.0 mg/kg/injection, schedule: Q01DX009 (ip), vehicle: Klucel (hydroxypropylcellulose) (HPC)
[10] = dose: 100.0 mg/kg/injection, schedule: Q01DX009 (ip), vehicle: Klucel (hydroxypropylcellulose) (HPC)
[11] = dose: 100.0 mg/kg/injection, schedule: Q04DX003 (ip), vehicle: Klucel (hydroxypropylcellulose) (HPC)
[12] = dose: 400.0 mg/kg/injection, schedule: Q01DX009 (ip), vehicle: Klucel (hydroxypropylcellulose) (HPC)
[13] = dose: 25.0 mg/kg/injection, schedule: Q01DX009 (ip), vehicle: saline
[14] = dose: 50.0 mg/kg/injection, schedule: Q01DX009 (ip), vehicle: saline
[15] = dose: 50.0 mg/kg/injection, schedule: Q04DX003 (ip), vehicle: saline
[16] = dose: 100.0 mg/kg/injection, schedule: Q04DX003 (ip), vehicle: saline

With `CCC12C=CCN3CCC4(c5ccc(OC)cc5N(C)C4C(O)(C(=O)OC)C1OC(C)=O)C32` (stereo not given) (tested in a mixture with another compound) the T/C (dose: 0.06 mg/kg/injection, schedule: Q01DX009 (ip), vehicle: water) was 86 % of control and 95 % of control, the T/C (dose: 0.12 mg/kg/injection, schedule: Q01DX009 (ip), vehicle: water) was 90 % of control and the T/C (dose: 0.25 mg/kg/injection, schedule: Q01DX009 (ip), vehicle: water) was 86 % of control and 104 % of control. The T/C (dose: 0.5 mg/kg/injection, schedule: Q01DX009 (ip), vehicle: water) was 90 % of control, the T/C (dose: 1.0 mg/kg/injection, schedule: Q01DX009 (ip), vehicle: water) was 86 % of control and 90 % of control and the T/C (dose: 2.0 mg/kg/injection, schedule: Q01DX009 (ip), vehicle: water) was 100 % of control and 90 % of control.

With `c1ccc2cc3c(cc2c1)Nc1cc2ccccc2cc1N3` the T/C [1] was 96 % of control, the T/C [2] was 100 % of control and the T/C [3] was 103 % of control. For the same molecule, the T/C [4] was 100 % of control, the T/C [5] was 100 % of control and the T/C (dose: 400.0 mg/kg/injection, schedule: Q04DX003 (ip), vehicle: saline with Tween-80) was 108 % of control.

In the case of `CC(C(=O)c1cc(O)c(O)cc1C(O)(C(F)(F)F)C(F)(F)F)C(O)(C(F)(F)F)C(F)(F)F` (stereo not given), the T/C [1] is reported as 100 % of control, the T/C [3] is reported as 100 % of control and the T/C [5] is reported as 95 % of control.

`O=[N+]([O-])c1cc2c(c([N+](=O)[O-])c1)OCOC2` was tested, and the T/C (dose: 25.0 mg/kg/injection, schedule: Q01DX009 (ip), vehicle: saline with Tween-80) was 95 % of control, the T/C [6] was 95 % of control and the T/C [1] was 86 % of control. For the same molecule, the T/C [2] was 100 % of control and the T/C [4] was 95 % of control.

`C=C1C(O)C2(O)OCC34C(CC5C(C)=CC(=O)C(OC)C5(C)C23)OC(=O)C(OC(=O)C(C)CC)C14` (stereo not given) was tested, and the T/C (dose: 0.06 mg/kg/injection, schedule: Q01DX009 (ip), vehicle: saline with Tween-80) was 98 % of control, the T/C (dose: 0.12 mg/kg/injection, schedule: Q01DX009 (ip), vehicle: saline with Tween-80) was 112 % of control and the T/C (dose: 0.25 mg/kg/injection, schedule: Q01DX009 (ip), vehicle: saline with Tween-80) was 105 % of control. The T/C (dose: 0.5 mg/kg/injection, schedule: Q01DX009 (ip), vehicle: saline with Tween-80) was 110 % of control, the T/C (dose: 1.0 mg/kg/injection, schedule: Q01DX009 (ip), vehicle: saline with Tween-80) was 120 % of control and the T/C (dose: 2.0 mg/kg/injection, schedule: Q01DX009 (ip), vehicle: saline with Tween-80) was 115 % of control.

For `COc1ccc2ccccc2c1C1NC(=O)c2ccccc2N1` (stereo not given), the T/C [7] was 115 % of control, the T/C [8] was 100 % of control and the T/C [9] was 166 % of control.

For `Nc1cc(N)nc(S(=O)O)n1`, the T/C [7] was 95 % of control and 111 % of control and 120 % of control, the T/C (dose: 25.0 mg/kg/injection, schedule: Q04DX003 (ip), vehicle: Klucel (hydroxypropylcellulose) (HPC)) was 104 % of control and the T/C [8] was 95 % of control. For the same molecule, the T/C (dose: 50.0 mg/kg/injection, schedule: Q04DX003 (ip), vehicle: Klucel (hydroxypropylcellulose) (HPC)) was 95 % of control, the T/C [10] was 90 % of control and 110 % of control and the T/C [11] was 100 % of control.

`O=S(=O)(O)c1ccc(/C2=c3\cc/c([n-]3)=C(\c3ccc(S(=O)(=O)O)cc3)c3ccc([n-]3)/C(c3ccc(S(=O)(=O)O)cc3)=c3/cc/c([n-]3)=C(\c3ccc(S(=O)(=O)O)cc3)c3ccc2[n-]3)cc1.[Zn]` was tested, and the T/C (dose: 62.5 mg/kg/injection, schedule: Q01DX009 (ip), vehicle: saline with Tween-80) was 106 % of control.

In the case of `CC1SC(c2ccccc2)N(c2ccccc2)C1=O` (stereo not given), the T/C [10] is reported as 104 % of control, the T/C [11] is reported as 104 % of control and the T/C [9] is reported as 116 % of control. For the same molecule, the T/C (dose: 200.0 mg/kg/injection, schedule: Q04DX003 (ip), vehicle: Klucel (hydroxypropylcellulose) (HPC)) was 104 % of control, the T/C [12] was 100 % of control and the T/C (dose: 400.0 mg/kg/injection, schedule: Q04DX003 (ip), vehicle: Klucel (hydroxypropylcellulose) (HPC)) was 109 % of control.

`COc1ccc(C2=C/C(=C3\C(=O)Oc4ccccc4C3=O)SS2)cc1` was tested, and the T/C [6] was 90 % of control, the T/C [1] was 92 % of control and the T/C [3] was 90 % of control.

In the case of `O=[N+]([O-])c1ccc(S(=O)(=O)c2ccc([N+](=O)[O-])c3no[n+]([O-])c23)cc1`, the T/C (dose: 15.0 mg/kg/injection, schedule: Q01DX009 (ip), vehicle: saline with Tween-80) is reported as 100 % of control and the T/C (dose: 30.0 mg/kg/injection, schedule: Q01DX009 (ip), vehicle: saline with Tween-80) is reported as 90 % of control.

In the case of `C[NH-].C[NH-].[Br][Pt+2][Br]`, the T/C (dose: 6.0 mg/kg/injection, schedule: Q04DX003 (ip), vehicle: other) is reported as 170 % of control, the T/C (dose: 12.0 mg/kg/injection, schedule: Q04DX003 (ip), vehicle: other) is reported as 208 % of control and the T/C (dose: 12.5 mg/kg/injection, schedule: Q04DX003 (ip), vehicle: other) is reported as 212 % of control.

In the case of `Cc1c[n+]([O-])ccc1[N+](=O)[O-]`, the T/C [13] is reported as 100 % of control, the T/C [14] is reported as 104 % of control and the T/C [15] is reported as 100 % of control. The T/C [16] was 90 % of control and 95 % of control, the T/C (dose: 150.0 mg/kg/injection, schedule: Q04DX003 (ip), vehicle: saline) was 100 % of control and the T/C (dose: 200.0 mg/kg/injection, schedule: Q04DX003 (ip), vehicle: saline) was 86 % of control.

For `CC1(Cl)C(=O)NC(=O)C1Cl` (stereo not given), the T/C (dose: 3.12 mg/kg/injection, schedule: Q04DX003 (ip), vehicle: saline) was 92 % of control, the T/C (dose: 6.25 mg/kg/injection, schedule: Q04DX003 (ip), vehicle: saline) was 95 % of control and the T/C (dose: 12.5 mg/kg/injection, schedule: Q04DX003 (ip), vehicle: saline) was 100 % of control. For the same molecule, the T/C (dose: 25.0 mg/kg/injection, schedule: Q04DX003 (ip), vehicle: saline) was 104 % of control, the T/C [15] was 104 % of control and the T/C [16] was 113 % of control.

With `O=C(C[n+]1ccccc1)N/N=C/c1ccc([N+](=O)[O-])s1` the T/C (dose: 12.5 mg/kg/injection, schedule: Q01DX009 (ip), vehicle: water) was 114 % of control, the T/C (dose: 25.0 mg/kg/injection, schedule: Q04DX003 (ip), vehicle: water) was 90 % of control and the T/C (dose: 50.0 mg/kg/injection, schedule: Q04DX003 (ip), vehicle: water) was 104 % of control.

With `CC1=COC2CCCCC2O1` (stereo not given) (tested in a mixture with another compound) the T/C (dose: 100.0 mg/kg/injection, schedule: Q01DX009 (ip), vehicle: acetone) was 104 % of control, the T/C (dose: 200.0 mg/kg/injection, schedule: Q01DX009 (ip), vehicle: acetone) was 96 % of control and the T/C (dose: 400.0 mg/kg/injection, schedule: Q01DX009 (ip), vehicle: acetone) was 96 % of control.

For `Nc1nc(N)c(Nc2ccc(Cl)cc2)c(Cl)n1`, the T/C (dose: 100.0 mg/kg/injection, schedule: Q01DX001 (ip), vehicle: saline with Tween-80) was 88 % of control and the T/C (dose: 200.0 mg/kg/injection, schedule: Q01DX001 (ip), vehicle: saline with Tween-80) was 89 % of control.

With `CN1CCC(C(c2ccccc2)c2ccccc2)C1` (stereo not given) the T/C [8] was 109 % of control.

`C=C1C(=O)OC2CC3(C)CC(O)C(OC(C)=O)C(=C)C3CC12` (stereo not given) was tested, and the T/C [13] was 104 % of control and the T/C [14] was 101 % of control.

For `CC1(C)N=C(N)N=C(N)N1c1cccc(CCCCc2cccc(S(=O)(=O)F)c2)c1`, the T/C (dose: 1.5 mg/kg/injection, schedule: Q04DX003 (ip), vehicle: saline) was 118 % of control, the T/C (dose: 4.0 mg/kg/injection, schedule: Q04DX003 (ip), vehicle: saline with Tween-80) was 109 % of control and the T/C (dose: 6.0 mg/kg/injection, schedule: Q04DX003 (ip), vehicle: saline with Tween-80) was 113 % of control. For the same molecule, the T/C (dose: 6.25 mg/kg/injection, schedule: Q01DX009 (ip), vehicle: saline) was 108 % of control, the T/C (dose: 9.0 mg/kg/injection, schedule: Q04DX003 (ip), vehicle: saline with Tween-80) was 118 % of control and the T/C (dose: 12.5 mg/kg/injection, schedule: Q01DX009 (ip), vehicle: saline) was 116 % of control. The T/C [13] was 116 % of control.

With `CCCCC(=O)c1cc(OC)cc(OC)c1` the T/C [9] was 100 % of control and the T/C [12] was 91 % of control.

For `COc1cc(/C=N/OCc2cc3c(cc2Cl)OCO3)cc(OC)c1OC`, the T/C (dose: 100.0 mg/kg/injection, schedule: Q04DX003 (ip), vehicle: saline sonified) was 95 % of control, the T/C (dose: 200.0 mg/kg/injection, schedule: Q04DX003 (ip), vehicle: saline sonified) was 90 % of control and the T/C (dose: 400.0 mg/kg/injection, schedule: Q04DX003 (ip), vehicle: saline sonified) was 104 % of control.
